Measurements as given in US20240158446A1, “CYCLIC COMPOUND HAVING SELECTIVE INHIBITORY ACTION ON KRAS OVER HRAS AND NRAS” (CHUGAI SEIYAKU KABUSHIKI KAISHA, priority 2021, published 2024).
*1 amine or outer side, *2 acyl side, *3 side chain or, on linkers, in order; H or OH if unused. Where a SMILES comes first, the peptide text is derived from it. Bridges are numbered along the chain shown (N, C = ends). [ ]: non-standard residue; d: D form. The star is where a group is joined. hPhe(3,5-F2-4-CF3) = N[C@@H](CCc1cc(F)c(C(F)(F)F)c(F)c1)C(=O)O; hPhe(3-Cl-4-CF3) = N[C@@H](CCc1ccc(C(F)(F)F)c(Cl)c1)C(=O)O; NPrPhe(4-CF3) = CCCN[C@@H](Cc1ccc(C(F)(F)F)cc1)C(=O)O; NMeGly(cPent) = CN[C@H](C(=O)O)C1CCCC1; NMeD = CN[C@@H](CC(=O)O)C(=O)O; X1 = O=C(CN(CC(F)F)[*:1])[*:2]; NMeL = CN[C@@H](CC(C)C)C(=O)O; αMeL = CC(C)C[C@](C)(N)C(=O)O; αMeV = CC(C)[C@](C)(N)C(=O)O; Morpholide = C1CN(*)CCO1; Ac5c = NC1(C(=O)O)CCCC1; Aze = O=C(O)[C@@H]1CCN1; Abu = CC[C@H](N)C(=O)O; Ac4c = NC1(C(=O)O)CCC1; NEtG = CCNCC(=O)O; Sar = CNCC(=O)O

Experiments:
[1] = target: GDP-bound NRAS wild-type protein (Homo sapiens, UniProt P01111); assay: Binding to NRAS by surface plasmon resonance (SPR), Single Cycle Kinetics; conditions: SPR, GDP-bound NRAS wild-type protein vs GDP-bound KRAS wild-type protein
[2] = target: GDP-bound KRAS wild-type protein (Homo sapiens, UniProt P01116); assay: Binding to KRAS by surface plasmon resonance (SPR), Single Cycle Kinetics; conditions: SPR Single Cycle Kinetics, GDP-bound KRAS wild-type protein, 1:1 binding model; read-out: KRAS KD
[3] = system: human lung cancer strain NCI-H441;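 further: cell proliferation inhibition after four days measured by CellTiter-Glo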
[4] = target: GDP-bound HRAS wild-type protein (Homo sapiens, UniProt P01112); assay: Binding to HRAS by surface plasmon resonance (SPR), Single Cycle Kinetics; conditions: SPR, GDP-bound HRAS wild-type protein vs GDP-bound KRAS wild-type protein
Chain of GDP-bound HRAS wild-type protein (P01112 whole entry): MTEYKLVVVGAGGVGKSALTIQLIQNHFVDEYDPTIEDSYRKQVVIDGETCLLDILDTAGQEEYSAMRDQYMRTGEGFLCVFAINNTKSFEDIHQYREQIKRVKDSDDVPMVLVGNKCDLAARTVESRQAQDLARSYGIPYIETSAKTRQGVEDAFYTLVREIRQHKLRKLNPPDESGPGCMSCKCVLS

Chain of GDP-bound NRAS wild-type protein (P01111 whole entry): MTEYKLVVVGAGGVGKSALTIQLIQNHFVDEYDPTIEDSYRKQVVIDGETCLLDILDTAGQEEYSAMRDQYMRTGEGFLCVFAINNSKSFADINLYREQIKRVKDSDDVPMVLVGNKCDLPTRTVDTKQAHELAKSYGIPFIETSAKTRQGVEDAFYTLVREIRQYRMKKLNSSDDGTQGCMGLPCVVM
Chain of GDP-bound KRAS wild-type protein (P01116 whole entry): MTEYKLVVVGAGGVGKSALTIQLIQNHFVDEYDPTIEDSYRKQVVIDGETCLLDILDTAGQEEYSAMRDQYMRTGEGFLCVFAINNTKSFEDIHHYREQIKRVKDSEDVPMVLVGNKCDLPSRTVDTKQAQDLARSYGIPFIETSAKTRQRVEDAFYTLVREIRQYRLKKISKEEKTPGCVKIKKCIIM

| Structure (SMILES) | Kd [2] | IC50 [3] | NRAS/KRAS (ratio of KD value for NRAS to KD value for KRAS) [1] | HRAS/KRAS (ratio of KD value for HRAS to KD value for KRAS) [4] | NRAS/KRAS (ratio of KD value with respect to NRAS to KD value with respect to KRAS) [1] | HRAS/KRAS (ratio of KD value with respect to HRAS to KD value with respect to KRAS) [4] |
| --- | --- | --- | --- | --- | --- | --- |
| CCCN1C(=O)CN(C)C(=O)CN(CC)C(=O)[C@H](CC)NC(=O)[C@H](CC(C)C)N(C)C(=O)C[C@@H](C(=O)N2CCOCC2)N(C)C(=O)[C@H](C2CCCC2)N(C)C(=O)C2(CCCC2)NC(=O)[C@@H]2CCCN2C(=O)[C@H](CCc2ccc(C(F)(F)F)c(Cl)c2)NC(=O)CN(C)C(=O)[C@@H]1Cc1ccc(C(F)(F)F)cc1 [PP0290] ([NMeL][Abu][NEtG][Sar][NPrPhe(4-CF3)][Sar][hPhe(3-Cl-4-CF3)]P[Ac5c][NMeGly(cPent)][NMeD]-Morpholide; lactam N-11) | 4.8 nM | 149 nM | B (a compound having 3 or more and less than 10 is denoted as B) | C (A compound having a KD ratio of 0.1 or more and less than 3 is denoted as C) | – | – |
| CC[C@H](C)[C@@H]1NC(=O)[C@@H]2CCCCCN2C(=O)C[C@@H](C(=O)N2CCOCC2)N(C)C(=O)[C@H](C2CCCC2)N(C)C(=O)C2(CCCC2)NC(=O)[C@@H]2CCCN2C(=O)[C@H](CCc2cc(F)c(C(F)(F)F)c(F)c2)NC(=O)CN(C)C(=O)[C@H](Cc2ccc(C(F)(F)F)cc2)N2CCCC[C@@H](C2=O)N(C)C(=O)CN(C)C1=O [PP0595] | 1 nM | 80 nM | – | – | C (A compound having a KD ratio of 0.1 or more and less than 3 is denoted as C) | B (a compound having 3 or more and less than 10 is denoted as B) |
| CCO[C@@H]1C[C@H]2C(=O)NC3(CCC3)C(=O)N(C)[C@@H](C3CCCC3)C(=O)N(CCc3ccccc3)[C@H](C(=O)N3CCOCC3)CC(=O)N(C)[C@@H](CC(C)C)C(=O)N[C@@H]([C@@H](C)CC)C(=O)N(C)CC(=O)N(C)[C@H]3CCCCN(C3=O)[C@@H](Cc3ccc(C(F)(F)F)cc3)C(=O)N(C)CC(=O)N[C@@H](CCc3cc(F)c(C(F)(F)F)c(F)c3)C(=O)N2C1 [PP0652] | 2.5 nM | 208 nM | – | – | B (a compound having 3 or more and less than 10 is denoted as B) | B (a compound having 3 or more and less than 10 is denoted as B) |
| CCO[C@@H]1C[C@H]2C(=O)NC3(CCC3)C(=O)N(C)[C@@H](C3CCCC3)C(=O)N(C)[C@H](C(=O)N3CCOCC3)CC(=O)N(C)C(C)(C)C(=O)N[C@@H]([C@@H](C)CC)C(=O)N(C)CC(=O)N(C)[C@H]3CCCCN(C3=O)[C@@H](Cc3ccc(C(F)(F)F)cc3)C(=O)N(C)CC(=O)N[C@@H](CCc3cc(F)c(C(F)(F)F)c(F)c3)C(=O)N2C1 [PP0722] | 25 nM | 2600 nM | – | – | C (A compound having a KD ratio of 0.1 or more and less than 3 is denoted as C) | B (a compound having 3 or more and less than 10 is denoted as B) |
| CCCN1C(=O)CN(C)C(=O)CN(CC(F)F)C(=O)[C@H]([C@@H](C)CC)NC(=O)[C@H](CC(C)C)N(C)C(=O)C[C@@H](C(=O)N2CCOCC2)N(C)C(=O)[C@H](C2CCCC2)N(C)C(=O)C2(CCCC2)NC(=O)[C@@H]2CCCN2C(=O)[C@H](CCc2ccc(C(F)(F)F)c(Cl)c2)NC(=O)CN(C)C(=O)[C@@H]1Cc1ccc(C(F)(F)F)cc1 [PP0752] ([NMeL]I[X1][Sar][NPrPhe(4-CF3)][Sar][hPhe(3-Cl-4-CF3)]P[Ac5c][NMeGly(cPent)][NMeD]-Morpholide; lactam N-11) | 0.54 nM | 25.8 nM | – | – | B (a compound having 3 or more and less than 10 is denoted as B) | B (a compound having 3 or more and less than 10 is denoted as B) |
| CCCN1C(=O)CN(C)C(=O)CN(C)C(=O)[C@H]([C@@H](C)CC)NC(=O)[C@H](CC(C)C)N(C)C(=O)C[C@@H](C(=O)N2CCOCC2)N(C)C(=O)[C@H](C2CCCC2)N(C)C(=O)[C@](C)(C(C)C)NC(=O)[C@@H]2CCCN2C(=O)[C@H](CCc2cc(F)c(C(F)(F)F)c(F)c2)NC(=O)CN(C)C(=O)[C@@H]1Cc1ccc(C(F)(F)F)cc1 [PP0756] ([NMeL]I[Sar][Sar][NPrPhe(4-CF3)][Sar][hPhe(3,5-F2-4-CF3)]P[αMeV][NMeGly(cPent)][NMeD]-Morpholide; lactam N-11) | 0.87 nM | 69.5 nM | – | – | B (a compound having 3 or more and less than 10 is denoted as B) | B (a compound having 3 or more and less than 10 is denoted as B) |
| CCCN1C(=O)CN(C)C(=O)CN(C)C(=O)[C@H]([C@@H](C)CC)NC(=O)[C@H](CC(C)C)N(C)C(=O)C[C@@H](C(=O)N2CCOCC2)N(C)C(=O)[C@H](C2CCCC2)N(C)C(=O)[C@](C)(CC(C)C)NC(=O)[C@@H]2CCCN2C(=O)[C@H](CCc2cc(F)c(C(F)(F)F)c(F)c2)NC(=O)CN(C)C(=O)[C@@H]1Cc1ccc(C(F)(F)F)cc1 [PP0759] ([NMeL]I[Sar][Sar][NPrPhe(4-CF3)][Sar][hPhe(3,5-F2-4-CF3)]P[αMeL][NMeGly(cPent)][NMeD]-Morpholide; lactam N-11) | 2.7 nM | 185 nM | – | – | B (a compound having 3 or more and less than 10 is denoted as B) | B (a compound having 3 or more and less than 10 is denoted as B) |

Stronger by Kd [2], values ahead:

| Kd [2] | IC50 [3] | Structure (SMILES) | NRAS/KRAS (ratio of KD value for NRAS to KD value for KRAS) [1] | HRAS/KRAS (ratio of KD value for HRAS to KD value for KRAS) [4] | NRAS/KRAS (ratio of KD value with respect to NRAS to KD value with respect to KRAS) [1] | HRAS/KRAS (ratio of KD value with respect to HRAS to KD value with respect to KRAS) [4] |
| --- | --- | --- | --- | --- | --- | --- |
| 0.48 nM | 3.6 nM | CCCN1C(=O)CN(C)C(=O)CN(CC)C(=O)[C@H]([C@@H](C)CC)NC(=O)[C@H](CC(C)C)N(C)C(=O)C[C@@H](C(=O)N2CCOCC2)N(C)C(=O)[C@H](C2CCCC2)N(C)C(=O)C2(CCC2)NC(=O)[C@@H]2CCCN2C(=O)[C@H](CCc2ccc(C(F)(F)F)c(Cl)c2)NC(=O)CN(C)C(=O)[C@@H]1Cc1ccc(C(F)(F)F)cc1 [PP0398] ([NMeL]I[NEtG][Sar][NPrPhe(4-CF3)][Sar][hPhe(3-Cl-4-CF3)]P[Ac4c][NMeGly(cPent)][NMeD]-Morpholide; lactam N-11) | B (a compound having 3 or more and less than 10 is denoted as B) | C (A compound having a KD ratio of 0.1 or more and less than 3 is denoted as C) | – | – |
| 0.11 nM | 7.6 nM | CCCN1C(=O)[C@@H]2CCN2C(=O)CN(C)C(=O)[C@H]([C@@H](C)CC)NC(=O)[C@H](CC(C)C)N(C)C(=O)C[C@@H](C(=O)N2CCOCC2)N(C)C(=O)[C@H](C2CCCC2)N(C)C(=O)C2(CCC2)NC(=O)[C@@H]2CCCN2C(=O)[C@H](CCc2ccc(C(F)(F)F)c(Cl)c2)NC(=O)CN(C)C(=O)[C@@H]1Cc1ccc(C(F)(F)F)cc1 [PP0407] ([NMeL]I[Sar][Aze][NPrPhe(4-CF3)][Sar][hPhe(3-Cl-4-CF3)]P[Ac4c][NMeGly(cPent)][NMeD]-Morpholide; lactam N-11) | C (A compound having a KD ratio of 0.1 or more and less than 3 is denoted as C) | B (a compound having 3 or more and less than 10 is denoted as B) | – | – |
| 0.18 nM | 7.1 nM | CCCN1C(=O)CN(C)C(=O)CN(CC)C(=O)[C@H]([C@@H](C)CC)NC(=O)[C@H](CC(C)C)N(C)C(=O)C[C@@H](C(=O)N(C)C)N(C)C(=O)[C@H](C2CCCC2)N(C)C(=O)C2(CCCC2)NC(=O)[C@@H]2CCCN2C(=O)[C@H](CCc2ccc(C(F)(F)F)c(Cl)c2)NC(=O)CN(C)C(=O)[C@@H]1Cc1ccc(C(F)(F)F)cc1 [PP0423] ([NMeL]I[NEtG][Sar][NPrPhe(4-CF3)][Sar][hPhe(3-Cl-4-CF3)]P[Ac5c][NMeGly(cPent)][NMeD]-NMe2; lactam N-11) | – | – | B (a compound having 3 or more and less than 10 is denoted as B) | C (A compound having a KD ratio of 0.1 or more and less than 3 is denoted as C) |
| 0.067 nM | 31.4 nM | CC[C@H](C)[C@@H]1NC(=O)[C@H](CC(C)C)N(C)C(=O)C[C@@H](C(=O)N2CCOCC2)N(C)C(=O)[C@H](C2CCCC2)N(C)C(=O)C2(CCCC2)NC(=O)[C@@H]2[C@@H](O)CCN2C(=O)[C@H](CCc2cc(F)c(C(F)(F)F)c(F)c2)NC(=O)CN(C)C(=O)[C@H](Cc2ccc(C(F)(F)F)cc2)N2CCCC[C@@H](C2=O)N(C)C(=O)CN(C)C1=O [PP0558] | – | – | B (a compound having 3 or more and less than 10 is denoted as B) | B (a compound having 3 or more and less than 10 is denoted as B) |
| 0.14 nM | 17 nM | CCO[C@@H]1C[C@H]2C(=O)NC3(CCC3)C(=O)N(C)[C@@H](C3CCCC3)C(=O)N(CCC3CCCC3)[C@H](C(=O)N(C)C)CC(=O)N(C)[C@@H](CC)C(=O)N[C@@H]([C@@H](C)CC)C(=O)N(C)CC(=O)N(C)[C@H]3CCCCN(C3=O)[C@@H](Cc3ccc(C(F)(F)F)cc3)C(=O)N(C)CC(=O)N[C@@H](CCc3cc(F)c(C(F)(F)F)c(F)c3)C(=O)N2C1 [PP0646] | – | – | C (A compound having a KD ratio of 0.1 or more and less than 3 is denoted as C) | B (a compound having 3 or more and less than 10 is denoted as B) |
| 0.44 nM | 127 nM | CCO[C@@H]1C[C@H]2C(=O)NC3(CC=CC3)C(=O)N(C)[C@@H](C3CCCC3)C(=O)N(C)[C@H](C(=O)N(C)C)CC(=O)N(C)[C@@H](C)C(=O)N[C@@H]([C@@H](C)CC)C(=O)N(C)CC(=O)N(C)[C@H]3CCCCCN(C3=O)[C@@H](Cc3ccc(C(F)(F)F)cc3)C(=O)N(C)CC(=O)N[C@@H](CCc3cc(F)c(C(F)(F)F)c(F)c3)C(=O)N2C1 [PP0724] | – | – | B (a compound having 3 or more and less than 10 is denoted as B) | B (a compound having 3 or more and less than 10 is denoted as B) |
